From PMC2654387 (Biochemistry, 2008)
Where two headings read alike, the source gives them in different places.

What was measured:
BasE [1] = biological target: T1, BasE (Acinetobacter baumannii, UniProt A0A0D5YGP3); type: biochemical
EntE [2] = biological target: T2, EntE (Escherichia coli, UniProt P10378); settings: cited from earlier work
BasE [3] = biological target: T1, BasE; test: biochemical; type: binding
EntE [4] = biological target: T2, EntE; test: biochemical; type: binding
MbtA [5] = biological target: T3, MbtA (Mycobacterium tuberculosis, UniProt P71716)
T3 sequence (P71716 whole entry, looked up): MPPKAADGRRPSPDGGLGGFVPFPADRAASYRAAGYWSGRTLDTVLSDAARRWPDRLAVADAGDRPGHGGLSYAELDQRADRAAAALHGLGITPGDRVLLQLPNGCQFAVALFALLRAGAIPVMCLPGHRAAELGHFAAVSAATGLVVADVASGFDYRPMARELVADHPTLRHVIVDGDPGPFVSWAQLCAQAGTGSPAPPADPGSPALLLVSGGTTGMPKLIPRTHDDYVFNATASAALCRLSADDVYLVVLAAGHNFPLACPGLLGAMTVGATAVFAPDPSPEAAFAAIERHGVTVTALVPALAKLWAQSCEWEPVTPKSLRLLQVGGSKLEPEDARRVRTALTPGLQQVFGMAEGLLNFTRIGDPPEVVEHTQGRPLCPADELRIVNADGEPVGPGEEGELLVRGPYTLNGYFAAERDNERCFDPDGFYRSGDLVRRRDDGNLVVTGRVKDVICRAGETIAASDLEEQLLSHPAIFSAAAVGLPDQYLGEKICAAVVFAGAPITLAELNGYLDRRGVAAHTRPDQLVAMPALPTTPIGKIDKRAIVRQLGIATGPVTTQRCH

YbtE [6] = biological target: T4, YbtE (Yersinia pseudotuberculosis serotype I, UniProt Q3V7P9)
T4 sequence (Q3V7P9 1-525): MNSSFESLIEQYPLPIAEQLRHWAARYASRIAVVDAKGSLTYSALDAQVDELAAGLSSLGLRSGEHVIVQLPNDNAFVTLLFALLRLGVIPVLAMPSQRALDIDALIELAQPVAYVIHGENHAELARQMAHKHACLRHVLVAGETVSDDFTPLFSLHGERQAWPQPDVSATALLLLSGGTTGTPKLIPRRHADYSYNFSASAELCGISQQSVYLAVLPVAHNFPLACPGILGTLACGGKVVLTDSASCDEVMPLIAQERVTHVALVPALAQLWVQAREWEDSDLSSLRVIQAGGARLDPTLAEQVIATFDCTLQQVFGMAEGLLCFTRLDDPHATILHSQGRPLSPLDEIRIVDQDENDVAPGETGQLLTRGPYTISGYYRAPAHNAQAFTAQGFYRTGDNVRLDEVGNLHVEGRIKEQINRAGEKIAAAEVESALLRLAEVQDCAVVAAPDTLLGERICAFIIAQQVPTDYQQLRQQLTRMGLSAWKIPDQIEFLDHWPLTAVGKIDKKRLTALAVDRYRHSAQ

DhbE [7] = biological target: T5, DhbE (Bacillus subtilis, UniProt P40871); type: binding
T5 sequence (P40871 whole entry): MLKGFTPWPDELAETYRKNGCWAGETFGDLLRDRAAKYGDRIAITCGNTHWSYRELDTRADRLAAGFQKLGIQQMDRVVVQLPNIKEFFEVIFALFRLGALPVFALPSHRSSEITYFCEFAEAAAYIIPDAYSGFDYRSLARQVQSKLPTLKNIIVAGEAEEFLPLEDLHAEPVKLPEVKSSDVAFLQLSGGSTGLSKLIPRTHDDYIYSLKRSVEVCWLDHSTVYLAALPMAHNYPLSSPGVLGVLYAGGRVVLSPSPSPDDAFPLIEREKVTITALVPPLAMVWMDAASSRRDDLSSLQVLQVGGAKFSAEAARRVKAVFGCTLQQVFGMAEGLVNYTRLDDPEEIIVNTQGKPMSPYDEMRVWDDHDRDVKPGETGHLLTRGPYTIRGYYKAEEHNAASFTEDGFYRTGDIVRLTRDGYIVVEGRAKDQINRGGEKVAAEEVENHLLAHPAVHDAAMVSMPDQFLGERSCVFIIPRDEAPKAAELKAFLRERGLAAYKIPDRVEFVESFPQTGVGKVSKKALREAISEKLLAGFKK

MbtA [8] = biological target: T3, MbtA; remark: listed apart in the source
AsbC = AsbC (Bacillus anthracis, UniProt Q81RQ7)
Sequence of AsbC (Q81RQ7 whole entry, looked up): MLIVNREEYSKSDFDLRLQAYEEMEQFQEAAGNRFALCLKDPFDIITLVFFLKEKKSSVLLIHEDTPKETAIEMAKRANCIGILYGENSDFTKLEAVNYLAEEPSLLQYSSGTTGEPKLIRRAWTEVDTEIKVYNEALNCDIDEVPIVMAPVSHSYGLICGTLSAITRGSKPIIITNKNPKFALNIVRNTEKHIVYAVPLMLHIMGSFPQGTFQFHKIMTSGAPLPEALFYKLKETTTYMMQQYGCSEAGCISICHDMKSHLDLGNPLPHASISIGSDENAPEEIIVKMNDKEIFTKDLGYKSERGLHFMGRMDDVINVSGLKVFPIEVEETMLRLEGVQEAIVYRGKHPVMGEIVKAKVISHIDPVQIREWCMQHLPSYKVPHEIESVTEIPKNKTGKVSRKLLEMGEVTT

VibE [9] = biological target: T6, VibE (Vibrio cholerae serotype O1, UniProt O07899)
T6 sequence (O07899 whole entry): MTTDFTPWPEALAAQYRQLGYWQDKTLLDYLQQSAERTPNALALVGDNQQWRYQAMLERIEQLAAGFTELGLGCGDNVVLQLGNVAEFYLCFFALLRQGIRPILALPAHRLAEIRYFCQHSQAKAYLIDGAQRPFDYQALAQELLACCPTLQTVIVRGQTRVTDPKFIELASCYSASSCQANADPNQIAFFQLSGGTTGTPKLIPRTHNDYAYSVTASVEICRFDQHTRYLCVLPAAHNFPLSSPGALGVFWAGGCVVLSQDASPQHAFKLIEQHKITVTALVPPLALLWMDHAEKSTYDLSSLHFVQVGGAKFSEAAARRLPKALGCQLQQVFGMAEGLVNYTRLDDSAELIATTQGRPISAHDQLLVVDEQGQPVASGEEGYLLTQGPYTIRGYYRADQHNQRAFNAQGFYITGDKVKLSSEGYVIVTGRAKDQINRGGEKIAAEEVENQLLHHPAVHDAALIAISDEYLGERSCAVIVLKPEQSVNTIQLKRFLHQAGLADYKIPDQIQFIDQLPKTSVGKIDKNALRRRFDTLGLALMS

BasE [10] = biological target: T1, BasE; type: binding
EntE [11] = biological target: T2, EntE
MbtA [12] = biological target: T3, MbtA; remark: listed apart in the source
BasE [13] = biological target: T1, BasE; type: binding; remark: listed apart in the source
VibE [14] = biological target: T6, VibE; test: biochemical; type: binding
MbtA [15] = biological target: T3, MbtA; test: biochemical; type: binding
DhbE [16] = biological target: T5, DhbE; test: biochemical; type: binding
YbtE [17] = biological target: T4, YbtE; settings: read-out: Calculated Ligand-Protein Dissociation Constant KD2
[18] = Calculated Ligand-Protein Dissociation Constant KD2
[19] = read-out: Calculated Ligand-Protein Dissociation Constant KD2

T2 sequence (P10378 whole entry): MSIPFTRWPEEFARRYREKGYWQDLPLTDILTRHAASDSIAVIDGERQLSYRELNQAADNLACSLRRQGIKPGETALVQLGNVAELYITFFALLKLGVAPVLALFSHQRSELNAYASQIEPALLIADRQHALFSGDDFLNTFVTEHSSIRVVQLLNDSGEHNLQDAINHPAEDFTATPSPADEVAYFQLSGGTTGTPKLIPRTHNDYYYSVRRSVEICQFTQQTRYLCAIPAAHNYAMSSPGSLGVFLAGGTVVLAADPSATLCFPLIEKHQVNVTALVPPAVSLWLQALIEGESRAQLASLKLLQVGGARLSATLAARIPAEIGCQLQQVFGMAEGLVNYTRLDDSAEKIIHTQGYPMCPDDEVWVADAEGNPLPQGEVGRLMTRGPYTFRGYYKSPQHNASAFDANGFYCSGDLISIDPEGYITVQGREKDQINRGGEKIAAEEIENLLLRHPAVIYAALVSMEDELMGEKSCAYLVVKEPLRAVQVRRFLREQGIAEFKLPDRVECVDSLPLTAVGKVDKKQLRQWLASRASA
T1 sequence (A0A0D5YGP3 1-542): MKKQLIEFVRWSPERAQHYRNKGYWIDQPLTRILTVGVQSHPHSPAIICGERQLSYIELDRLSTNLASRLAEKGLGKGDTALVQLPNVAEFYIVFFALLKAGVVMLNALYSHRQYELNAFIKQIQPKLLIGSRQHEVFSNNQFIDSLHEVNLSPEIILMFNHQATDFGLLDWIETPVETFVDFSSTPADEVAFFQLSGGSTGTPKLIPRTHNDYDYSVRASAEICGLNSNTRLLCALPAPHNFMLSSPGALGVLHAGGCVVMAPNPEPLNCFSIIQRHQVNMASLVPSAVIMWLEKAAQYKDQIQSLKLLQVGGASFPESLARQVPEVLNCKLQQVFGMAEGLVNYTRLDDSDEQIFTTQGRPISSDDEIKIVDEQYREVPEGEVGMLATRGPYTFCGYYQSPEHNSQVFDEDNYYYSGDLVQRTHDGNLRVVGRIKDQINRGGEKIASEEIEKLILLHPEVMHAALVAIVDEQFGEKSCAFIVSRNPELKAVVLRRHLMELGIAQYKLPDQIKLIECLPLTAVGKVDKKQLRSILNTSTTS

O=C(O)c1ccc(O)c(O)c1 [3,4-dihydroxybenzoic acid]
kcat (pyrophosphate exchange) (BasE [1]): < 0.017 s⁻¹

O=C(O)c1ccccc1 [benzoic acid]
kcat (EntE [2]): < 0.017 s⁻¹
kcat (pyrophosphate exchange) (BasE [1]): < 0.017 s⁻¹

Nc1ncnc2c1ncn2[C@@H]1O[C@H](COS(=O)(=O)NC(=O)c2ccccc2O)[C@@H](O)[C@H]1O [compound 4, 5′-O-[N-(salicyl)sulfamoyl]adenosine]
Kd (BasE [3]; [18]): 0.0167 ± 0.0031 µM
Kd (EntE [4]; [18]): 0.0336 ± 0.006 µM

CCN(CC)CC.Nc1ncnc2c1ncn2[C@@H]1O[C@H](COS(=O)(=O)NC(=O)c2ccccc2O)[C@@H](O)[C@H]1OCCOCCOCCNC(=O)c1ccc2c(c1)C(=O)OC21c2ccc(O)cc2Oc2cc(O)ccc21 [compound 6, 2′-O-{2-[2-(2-{[(Fluorescein-5-yl)carbonyl]amino}ethoxy)ethoxy]ethoxy}-5′-O-[N-(2-hydroxybenzoyl)sulfamoyl]adenosine Triethylammonium Salt]
Q (MbtA [5]): 1.07
AB (YbtE [6]): 0.240 ± 0.002
Kd (YbtE [6]): 0.0576 ± 0.0034 µM
Q (YbtE [6]): 1.07
AB (DhbE [7]): 0.213 ± 0.005
Kd (DhbE [7]): 0.369 ± 0.033 µM
Q (DhbE [7]): 0.89
TΔS (MbtA [8]): 0.71 ± 0.80 kcal/mol
ΔH (MbtA [8]): -9.80 ± 1.06 kcal/mol
change of fluorescence anisotropy of the probe (binding to AsbC) (AsbC): did not show a significant change
AB (VibE [9]): 0.200 ± 0.002
Kd (VibE [9]): 0.0855 ± 0.0056 µM
Q (VibE [9]): 1.27
AB (BasE [10]): 0.222 ± 0.002
Q (BasE [10]): 1.02
AB (EntE [11]): 0.210 ± 0.001
Kd (EntE [11]): 0.221 ± 0.008 µM
Q (EntE [11]): 1.21
koff (MbtA [12]): 0.0085 ± 0.00033 s⁻¹
TΔS (BasE [13]): 4.41 ± 0.18 kcal/mol
ΔH (BasE [13]): -4.88 ± 0.17 kcal/mol

O=C(O)c1ccccc1O [compound 20, salicylic acid]
Kd (BasE [3]; [18]): 57.5 µM
Kd (EntE [4]; [18]): 211 µM
Km (EntE [2]): 91 µM
kcat (EntE [2]): 2.5 s⁻¹
Kd (VibE [14]): 36.6 µM
Kd (MbtA [15]): 11.9 µM

O=C(O)c1cccc(O)c1O [compound 21, 2,3-dihydroxybenzoic acid]
Kd (DhbE [16]): 3.76 µM
Kd (BasE [3]; [18]): 2.63 µM
Kd (EntE [4]; [18]): 8.18 µM
Kd (VibE [14]): 1.64 µM
Kd (MbtA [15]): > 300 µM

Nc1ncnc2c1ncn2[C@@H]1O[C@H](COP(=O)(O)O)[C@@H](O)[C@H]1O [compound 22, adenosine monophosphate]
Kd (YbtE [17]): 260 µM
Kd (BasE [3]; [19]): 173 µM
Kd (EntE [4]; [19]): 125 µM
Kd (VibE [14]): 12 µM
Kd (VibE [14]; [19]): 12 µM
Kd (MbtA [15]; [19]): 183 µM
